The source of these data is patent publication US20150307530A1, “NOVEL MUCOLYTIC AGENTS” (PARION SCIENCES, INC., priority 2012, published 2015).

Data set [1] concerns the target Muc5B (Homo sapiens, UniProt Q9HC84). As to the kind of experiment: Mucin agarose gel western blot: Muc5B reduction in saliva. The note with it: 30 minute incubation, FIG. 4; for concentration producing Muc5B (mucin) reduction by downward gel shift: pH 6.5, agarose gel/western blot. For orientation: A gel shift assay detects complexes by their altered migration in electrophoresis.
Protocol: Analysis of Muc5B reduction by western blot. Saliva was incubated with reducing agents at indicated concentrations for 30 min prior to agarose gel electrophoresis/western blot visualization of unreduced and reduced Muc5B. Both saliva and compounds were buffered to pH 6.5.
Quantitation of Muc5B reduction by western blot.
Saliva samples were aliquoted and incubated with the indicated concentrations of reducing agents (FIG. 4). After a 30 minute incubation, the reducing agents were quenched by the addition of a 10-fold molar excess of N-ethylmaliamide (NEM). The mucus samples were separated by agarose gel electrophoresis and analyzed by western blot.

Data set [2] in a line: DTNB assay: rate of disulfide bond reduction. It counts as biochemical. The note with it: for DTNB reducing kinetics as a function of pH: pH range relevant for mucosal surfaces (pH 6.0-7.5); for DTNB reducing kinetics as a function of pH / reducing kinetic for DTNB reduction compared with NAC and DTT: FIG. 3; for reducing kinetic for DTNB reduction compared with NAC and DTT: comparison with thiol reducing agents. The source says:
FIG. 2. Spectrophotometric studies monitored formation of reduced DTNB over time. Reaction rates, generated using second order kinetics, for each compound were compared as a function of reducing agent to substrate (DTNB) concentration at pH 6.5.
FIG. 3. Spectrophotometric studies monitored formation of reduced DTNB over time. Reaction rates, generated using second order kinetics, for each compound were over a pH range relevant for mucosal surfaces.
Mucin Agarose Gel Western Blots: Reducing agent stock solutions are made up in 100 mM Potassium Phosphate and are buffered to pH 6.5. The reducing agent stocks are diluted into saliva samples (pH 6.5) to achieve the final desired reducing agent concentration. […] The reactions are quenched using at least a 2-fold excess of N-ethylmaleimide and/or hydrogen peroxide. A 5× concentrated sample loading buffer is diluted into the samples to achieve a 1× concentration (1×TAE, 5% glycerol, 0.1% SDS, Bromophenol Blue). Samples (50 ug) are analyzed by electrophoresis on 0.9% agarose gels using a buffer system consisting of 1×TAE/0.1% SDS. […] Unreduced and reduced Muc5B are visualized using a polyclonal antibody directed towards Muc5B and a Protoblot II AP System with stabilized substrate. […] Each compound solution (10 uL) is added apically to primary hBEs for 6 hrs. The hBEs are lysed in RIPA buffer supplemented with protease inhibitor cocktail (Roche) and 1 mM PMSF. The samples are normalized to contain the same total amount of protein followed by addition of 2×SDS sample buffer (100 mM Tris-HCl (pH6.8)/4% SDS/0.05% Bromophenol Blue/20% glycerol). Samples (20 […]g) are analyzed by electrophoresis on a 10% SDS-PAGE gel and transferred to a nitrocellulose membrane. BiP levels are visualized using a polyclonal antibody directed towards BiP and the LiCor Odyssey imaging detection system. Thapsigargin (TG, 2.5 µM) served as a positive control for BiP induction. DTNB ASSAY: This assay determines the rate which a mucolytic agent can reduce a disulfide bond using 5,5-Dithiobis(2-nitrobenzoic acid). DTNB in various pH buffers and allows comparison of the kinetic rates of reducing agents. […] Max Abs412 was measured and then utilized to calculate the activity concentration.
The kinetics of disulfide bond reduction can be quantitative measured using 5,5′-dithiobis-(2-nitrobenzoic acid) (DTNB or Ellman's Reagent). DTNB contains an internal disulfide bond, which when reduced, gives rise to two molecules of TNB that can be monitored by […] at 412 nm.

Data set [3] in a line: Hydrogen peroxide incubation (oxygen free radical scavenging), read out by DTNB reduction. It counts as biochemical. The note with it: excess hydrogen peroxide, 60 second incubation; FIG. 10. The method, then:
FIG. 10. Compound Ib was incubated with excess hydrogen peroxide to assess the ability of Compound Ib to scavenge oxygen free radicals. Following a 60 second incubation with hydrogen peroxide, the activity of Compound Ib was determined by its ability to reduce DTNB (Ellman's Reagent).

Data set [4] deals with Balb-C mice. As to the kind of experiment: BALF cellularity after pulmonary aspiration in Balb-C mice. The data set is classed as in vivo. The note with it: pulmonary aspiration (40 ul deposited dose), BALF at 4 and 24 hours post administration, all concentrations tested, FIG. 9. The method, then: FIG. 9. Balb-C mice were administered Compound Ib at the indicated concentrations via pulmonary aspiration (40 ul deposited dose). Bronchoalveolar lavage fluid (BALF) was collected at 4 and 24 hours post administration and the total cellularity of the BALF was determined.

The nature of data set [5]: Elimination of inhaled 14C-labeled NAC from the lungs in animal studies. The data set is classed as in vivo. The note with it: inhaled or intranasal, 14C-labeled NAC administered by inhalation, animal studies (unpublished observation). From the text: NAC, as a topical pulmonary therapeutic agent, is not optimal for the reduction of mucin disulfide bonds. […] For example, in the pH environment of the airway surface (measured in the range of pH 6.0 to 7.2 in CF and COPD airways), NAC exists only partially in its reactive state as a negatively charge thiolate (Jayaraman S, Song Y, Vetrivel L, Shankar L, Verkman A S. Noninvasive in vivo fluorescence measurement of airway-surface liquid depth, salt concentration, and pH. J Clin Invest. 2001; 107(3):317-24) (FIG. 3). […] The relatively low reducing activity at of NAC physiologic airway pH and a the short half-life of NAC on the lung surface provide an explanation for the lack of strong clinical evidence for effective mucus reduction in mucus obstructive diseases.

Where only a bound is given, the exact number is not on record here.

For the compound `O[C@H](CS)[C@H](O)CS` (racemic) [DTT, dithiothreitol, reference compound], the “concentration producing Muc5B (mucin) reduction by downward gel shift” value in data set [1] was at least 3 mM. Moreover, in data set [2], the “DTNB reducing kinetics as a function of pH” value (“DTNB reducing kinetics” for short) is “pH-dependent increase in DTNB reduction”.
On to `O=C(O)CCP(CCC(=O)O)CCC(=O)O` [Compound Ib, 3,3′,3″-phosphinetriyltripropanoic acid], for which, in data set [1], the “potency of mucus (Muc5B) reduction relative to NAC and DTT” value was “more potent”; the “concentration producing Muc5B (mucin) reduction by downward gel shift” value is reported as at least 1 mM. In data set [2], the “reducing kinetic for DTNB reduction compared with NAC and DTT” value is given as “faster reducing kinetic”; the “DTNB reducing kinetics” value is given as “pH-dependent increase in reducing activity”. Further, in data set [2] (increasing concentrations of reducing agent, fixed concentration of DTNB and pH (7.0), FIG. 2), the “DTNB reduction kinetics as a function of reducing agent to DTNB ratio” value is on record as “fastest reduction kinetics at all ratios of reducing agent to DTNB substrate”. For the same compound, in data set [3], the “activity (ability to reduce DTNB) after incubation with hydrogen peroxide” value was “decreased the activity”. In addition, in data set [4], the “total cellularity of the BALF compared to vehicle” value is “did not increase BALF cellularity compared to the vehicle”.
Turning to `NCCP(c1ccccc1)c1ccccc1` [If, 2-(diphenylphosphino)ethanamine], in data set [2], the “reducing kinetic for DTNB reduction compared with NAC and DTT” value is recorded as “faster reducing kinetic”; the “DTNB reducing kinetics” value is recorded as “fastest reducing kinetic tested”.
Consider `CC(=O)N[C@@H](CS)C(=O)O` [NAC, N-acetyl cysteine, reference compound], for which the “concentration producing Muc5B (mucin) reduction by downward gel shift” value in data set [1] was above 100 mM. Further, the half-life (usually the time needed for the level to fall by half in the phase considered) in data set [5] is around 20 min. Also, the “DTNB reducing kinetics” value in data set [2] was “pH-dependent increase in DTNB reduction”.
